Measurements published in patent US20250376484A1, “PRMT5 INHIBITORS AND USES THEREOF” (Gilead Sciences, Inc., priority 2024, published 2025).

Experiments:
[1] = MDR1/BCRP assay: permeability in cPgp-KO-MDCK-WT cells; assay type: in vitro ADME; conditions: dog, test compounds at 1 μM, 2-hour time point, pH 7.4
Description: (§1) cPgp-KO-MDCK-WT, cPgp-KO-MDR1-KI, and cPgp-KO—BCRP—KI cells (all from Sigma) were cultured in Dulbecco's Modification of Eagle's Medium (DMEM) with 4.5 g/L glucose, sodium pyruvate, and GlutaMAX (Gibco) supplemented with 1% Pen/Strep and 10% fetal bovine serum. The cells were maintained in an incubator at 37° C., 90% humidity, and 5% CO2 until reaching confluence over 5 days in 96-well transwell plates. Experiments were conducted using an HBSS donor buffer (Invitrogen) containing 10 mM HEPES and 15 mM glucose, adjusted to pH 7.4. The receiver well contained HBSS buffer supplemented with 1% BSA, 10 mM HEPES, and 15 mM glucose, and the pH was adjusted to 7.4. TEER values were measured to assess membrane integrity after an initial equilibration with BSA-free transport buffer for 15 minutes. The experiment was started by adding dosing solutions containing test compounds at 1 μM. Cells were dosed on the apical (A) side or basolateral (B) side at 100 μl and 200 μl, respectively, to determine forward (A to B) and reverse (B to A) permeability. At the 2-hour time point, 50 μl samples were collected from the receiver compartment. Each compound was tested in 2 separate replicate wells for each condition. All samples were immediately collected into plates, and 50 μL of acetonitrile was added. Subsequently, 350 μl of 30:70 methanol: acetonitrile containing internal standard was added to precipitate proteins and stabilize the test compounds. To test for non-specific binding and compound instability, the total amount of the drug was quantified at the end of the experiment and compared to the material present in the original dosing solution as a percentage of the recovery. All samples were analyzed by LC-MS/MS using electrospray ionization.
(§2) The apparent permeability, Papp, and % recovery were calculated as follows: […]

[2] = Cell viability assay (CellTitre-Glo), HCT116 WT; assay type: cell-based; conditions: human; HCT116 WT cells, 7 days of treatment, CTG luminescence
Description: (§3) Control compounds were analyzed in parallel each time for quality control.
(§4) In Brief, on Day-1, a serial dilution of stock compounds in DMSO was performed using BioMek liquid handlers and dispensed using Echo acoustic dispenser into 384 well plates. Both tool compounds and sample compounds were spotted in the same plate for a dose response of PRMT5 inhibitors. Compound plates were stored as frozen until the cells were ready for seeding.
(§5) On Day 0, 100 HCT WT or HCT116 MTAP-deleted cells were seeded in compound-containing 384 well plates (50 μl per well) in RPMI 1640 media supplemented with 10% heat inactivated fetal bovine serum, Glutamax and penicillin streptomycin using EL460 liquid dispenser 5 μl cassette (BioTek, part no. 7170011). After equilibrating the plate in room temperature, the cells were incubated for 7 days inside the sealed incubator set at 37° C. with […] and 5% CO2.
(§6) On Day 7, the viability of cells was measured using a CTG assay kit (CellTitre-Glo; Promega cat no. G7573). Shortly, 40 μl per well of luminescent cell viability assay reagent were dispensed using EL460 liquid dispenser 5 μl cassette. CTG luminescence signal was measured using an EnVision plate reader (PerkinElmer) in accordance with manufacturer's instruction. The CC50 values for each compound after 7 days of treatment were calculated using 4 parameter non-linear logistical curve fit.

MDR1 = molecular target: T1, MDR1 (Homo sapiens, UniProt P08183); test: MDR1/BCRP assay: efflux ratio in cPgp-KO-MDR1-KI cells; assay type: in vitro ADME; conditions: dog, MDCK-MDR1, efflux ratio Papp (B-to-A)/Papp (A-to-B), 2-hour time point, read-out: cPgp-KO-MDR1-KI (ER)
T1 construct: host or cells: MDCK cells with canine Pgp knocked out and MDR1 knocked in (cPgp-KO-MDR1-KI)
T1 sequence (P08183 whole entry): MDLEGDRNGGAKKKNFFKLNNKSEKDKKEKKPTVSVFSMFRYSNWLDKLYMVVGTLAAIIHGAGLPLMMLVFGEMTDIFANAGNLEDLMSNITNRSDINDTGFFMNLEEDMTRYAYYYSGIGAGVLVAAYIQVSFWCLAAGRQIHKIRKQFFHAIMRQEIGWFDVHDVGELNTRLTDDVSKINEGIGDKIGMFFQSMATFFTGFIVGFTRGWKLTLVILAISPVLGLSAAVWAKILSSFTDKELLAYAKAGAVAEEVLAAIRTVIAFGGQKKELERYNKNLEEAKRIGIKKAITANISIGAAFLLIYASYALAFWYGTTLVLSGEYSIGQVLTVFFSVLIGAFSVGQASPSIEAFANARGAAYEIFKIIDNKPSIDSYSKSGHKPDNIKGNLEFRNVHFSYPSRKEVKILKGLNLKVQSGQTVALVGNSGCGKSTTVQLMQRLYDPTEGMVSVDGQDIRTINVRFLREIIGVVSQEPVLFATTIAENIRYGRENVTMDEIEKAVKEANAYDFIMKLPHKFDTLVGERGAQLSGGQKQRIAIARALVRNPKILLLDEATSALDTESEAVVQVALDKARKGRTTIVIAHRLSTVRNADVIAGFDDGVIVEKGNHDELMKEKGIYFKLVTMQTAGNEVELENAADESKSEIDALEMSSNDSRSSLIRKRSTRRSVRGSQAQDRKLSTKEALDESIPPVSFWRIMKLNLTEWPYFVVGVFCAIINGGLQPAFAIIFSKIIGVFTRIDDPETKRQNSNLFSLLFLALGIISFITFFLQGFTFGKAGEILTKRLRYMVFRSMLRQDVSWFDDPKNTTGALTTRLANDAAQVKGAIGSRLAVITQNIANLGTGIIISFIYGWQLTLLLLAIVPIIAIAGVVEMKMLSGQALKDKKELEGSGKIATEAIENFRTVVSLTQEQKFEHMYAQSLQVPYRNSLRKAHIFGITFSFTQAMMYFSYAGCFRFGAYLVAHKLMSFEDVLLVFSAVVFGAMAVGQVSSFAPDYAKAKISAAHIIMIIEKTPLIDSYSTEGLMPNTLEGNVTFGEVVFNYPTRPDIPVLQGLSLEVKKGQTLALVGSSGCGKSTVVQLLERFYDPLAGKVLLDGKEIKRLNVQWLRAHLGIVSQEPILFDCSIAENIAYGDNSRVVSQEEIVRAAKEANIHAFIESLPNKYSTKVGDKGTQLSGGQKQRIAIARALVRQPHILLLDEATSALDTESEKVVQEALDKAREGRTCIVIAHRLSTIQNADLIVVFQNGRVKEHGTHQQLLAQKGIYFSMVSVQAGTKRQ
Description: as §1, §2

[3] = tested on: HCT116 MTAP-deleted cell lines; test: Cell viability assay (CellTitre-Glo), HCT116 MTAP-deleted; assay type: cell-based; conditions: for CC50: Homo sapiens, HCT-116, 168 h, HCT116 MTAP-deleted cells, 7 days of treatment, CTG luminescence, read-out: MTAP^del HCT116 CC50; for Selectivity: WT HCT116 CC50 versus MTAP^del HCT116 CC50
Description: as §3, §4, §5, §6

BCRP = molecular target: T2, BCRP (Homo sapiens, UniProt Q9UNQ0); test: MDR1/BCRP assay: efflux ratio in cPgp-KO-BCRP-KI cells; assay type: in vitro ADME; conditions: dog, efflux ratio Papp (B-to-A)/Papp (A-to-B), 2-hour time point, read-out: cPgp-KO-BCRP-KI (ER)
T2 construct: host or cells: MDCK cells with canine Pgp knocked out and BCRP knocked in (cPgp-KO-BCRP-KI)
T2 sequence (Q9UNQ0 1-655): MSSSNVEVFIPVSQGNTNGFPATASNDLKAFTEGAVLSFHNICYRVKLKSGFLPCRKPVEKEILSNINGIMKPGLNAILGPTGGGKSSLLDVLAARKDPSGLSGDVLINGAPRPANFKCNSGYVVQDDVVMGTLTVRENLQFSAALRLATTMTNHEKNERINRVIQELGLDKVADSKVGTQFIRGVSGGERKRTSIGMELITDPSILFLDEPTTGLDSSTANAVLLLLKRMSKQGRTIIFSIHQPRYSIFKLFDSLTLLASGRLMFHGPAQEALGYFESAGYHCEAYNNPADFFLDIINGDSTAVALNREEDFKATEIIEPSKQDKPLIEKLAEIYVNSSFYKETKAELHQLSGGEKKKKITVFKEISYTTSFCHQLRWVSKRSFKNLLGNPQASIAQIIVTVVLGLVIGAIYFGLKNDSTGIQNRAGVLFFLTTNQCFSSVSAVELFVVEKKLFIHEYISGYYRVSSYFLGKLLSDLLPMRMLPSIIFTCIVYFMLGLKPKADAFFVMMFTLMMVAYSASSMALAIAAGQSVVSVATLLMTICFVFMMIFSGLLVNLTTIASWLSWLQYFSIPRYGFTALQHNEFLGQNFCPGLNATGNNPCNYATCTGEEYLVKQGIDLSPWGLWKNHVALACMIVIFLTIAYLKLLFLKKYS
Description: as §1, §2

Papp A→B at 2 h, 1 µM [1] [×10⁻⁶ cm/s] | efflux ratio at 2 h, 1 μM (MDR1) | efflux ratio at 2 h, 1 μM (BCRP) | Structure (SMILES) | CC50 at 7 days [2] [nM] | CC50 [3] [nM] | Selectivity [3]
26 | 0.9 | 0.6 | Cn1ncc2c(NC(=O)C(=O)N3CC[C@H]4C[C@@H]3c3ccc(OC(F)(F)F)cc3O4)cnc(N)c21 [Example Ca-4, N-(7-amino-1-methyl-1H-pyrazolo[3,4-c]pyridin-4-yl)-2-oxo-2-((2S,6R)-9-(trifluoromethoxy)-3,4-dihydro-2H-2,6-methanobenzo[b][1,5]oxazocin-5(6H)-yl)acetamide] | 3200 | 31 | 102
12 | 1 | 0.7 | Cn1ncc2c(NC(=O)C(=O)N3CCC[C@@H]4Oc5cc(C(F)(F)F)cc(F)c5[C@@H]43)cnc(N)c21 [Example Ca-1, N-(7-amino-1-methyl-1H-pyrazolo[3,4-c]pyridin-4-yl)-2-((4aS,9bS)-9-fluoro-7-(trifluoromethyl)-3,4,4a,9b-tetrahydrobenzofuro[3,2-b]pyridin-1(2H)-yl)-2-oxoacetamide] | 1030 | 10 | 103
10.7 | 1.4 | 1.3 | Cn1ncc2c(NC(=O)C(=O)N3CC[C@H]4C[C@@H]3c3c(F)cc(C(F)(F)F)cc3O4)cnc(N)c21 [Example Ca-11, N-(7-amino-1-methyl-1H-pyrazolo[3,4-c]pyridin-4-yl)-2-((2S,6R)-7-fluoro-9-(trifluoromethyl)-3,4-dihydro-2H-2,6-methanobenzo[b][1,5]oxazocin-5(6H)-yl)-2-oxoacetamide] | 2070 | 18 | 115
